Assay results reported in patent US20230085307A1, “PYRIDAZINONE COMPOUND AND HERBICIDE” (NISSAN CHEMICAL CORPORATION, priority 2019, published 2023).

Legend:
[1] = tested on: oval-leafed pondweed; assay: Test Example 1: herbicidal activity, application before weed generation under submerged conditions (Table 16, symbol C); assay type: in vivo, oval-leafed pondweed (Monochoria vaginalis); details: 320 g/ha applied herbicide
Summary of the method: (§1)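 Submerged Wagner pots (alluvial soil, 4 cm water) sown with weed seeds and planted with 2.5-leaf rice seedlings; emulsifiable concentrate diluted in water applied to water surface on sowing day. Held in greenhouse at 25-30 °C; injury scored 0-5 by herbicidal rate after three weeks.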

[2] = tested on: wild oat; assay: Test Example 4: herbicidal effect by soil treatment (Table 19, symbol I); assay type: in vivo, wild oat (Avena fatua)
Summary of the method: (§2)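 Step 1: sow seeds in sterilized diluvial soil, cover ~1.5 cm. Step 2: spray diluted emulsion onto soil surface at predetermined rate. Step 3: greenhouse, 25–30° C, three weeks. Step 4: grade effect on each plant by earlier criteria.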

[3] = tested on: barnyard grass; assay: Test Example 5: herbicidal effect by foliage application, plastic box (Table 20, symbol H); assay type: in vivo, barnyard grass (Echinochloa crus-galli); details: foliage application
Summary of the method: (§3)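 Foliar spray test: emulsion formulation diluted in water to a set application rate, sprayed onto 14-day-old plants raised in diluvial soil at 25° C to 30° C under glass. Both herbicidal effect and crop effect rated visually three weeks later.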

[4] = tested on: Italian ryegrass; assay: Test Example 5: herbicidal effect by foliage application, plastic box (Table 20, symbol K); assay type: in vivo, Italian ryegrass (Lolium multiflorum); details: foliage application
Summary of the method: as §3

[5] = tested on: Italian ryegrass; assay: Test Example 4: herbicidal effect by soil treatment (Table 19, symbol K); assay type: in vivo, Italian ryegrass (Lolium multiflorum)
Summary of the method: as §2

[6] = tested on: windgrass; assay: Test Example 5: herbicidal effect by foliage application, plastic box (Table 20, symbol L); assay type: in vivo, windgrass (Apera spica-venti); details: foliage application
Summary of the method: as §3

[7] = tested on: late watergrass; assay: Test Example 1: herbicidal activity, application before weed generation under submerged conditions (Table 16, symbol A); assay type: in vivo, late watergrass (Echinochloa oryzicola); details: 320 g/ha applied herbicide
Summary of the method: as §1

[8] = tested on: lambsquarters; assay: Test Example 5: herbicidal effect by foliage application, plastic box (Table 20, symbol O); assay type: in vivo, lambsquarters (Chenopodium album); details: foliage application
Summary of the method: as §3

[9] = tested on: lambsquarters; assay: Test Example 4: herbicidal effect by soil treatment (Table 19, symbol O); assay type: in vivo, lambsquarters (Chenopodium album)
Summary of the method: as §2

[10] = tested on: redroot pigweed; assay: Test Example 5: herbicidal effect by foliage application, plastic box (Table 20, symbol N); assay type: in vivo, redroot pigweed (Amaranthus retroflexus); details: foliage application
Summary of the method: as §3

[11] = tested on: persian speedwell; assay: Test Example 4: herbicidal effect by soil treatment (Table 19, symbol R); assay type: in vivo, Persian speedwell (Veronica persica)
Summary of the method: as §2

[12] = tested on: persian speedwell; assay: Test Example 5: herbicidal effect by foliage application, plastic box (Table 20, symbol R); assay type: in vivo, Persian speedwell (Veronica persica); details: foliage application
Summary of the method: as §3

[13] = tested on: barnyard grass; assay: Test Example 4: herbicidal effect by soil treatment (Table 19, symbol H); assay type: in vivo, barnyard grass (Echinochloa crus-galli)
Summary of the method: as §2

[14] = tested on: wild oat; assay: Test Example 5: herbicidal effect by foliage application, plastic box (Table 20, symbol I); assay type: in vivo, wild oat (Avena fatua); details: foliage application
Summary of the method: as §3

[15] = tested on: chickweed; assay: Test Example 4: herbicidal effect by soil treatment (Table 19, symbol P); assay type: in vivo, common chickweed (Stellaria media)
Summary of the method: as §2

[16] = tested on: southern crabgrass; assay: Test Example 4: herbicidal effect by soil treatment (Table 19, symbol F); assay type: in vivo, southern crabgrass (Digitaria ciliaris)
Summary of the method: as §2

[17] = tested on: Japanese bulrush; assay: Test Example 1: herbicidal activity, application before weed generation under submerged conditions (Table 16, symbol B); assay type: in vivo, Japanese bulrush (Schoenoplectus juncoides); details: 320 g/ha applied herbicide
Summary of the method: as §1

[18] = tested on: blackgrass; assay: Test Example 5: herbicidal effect by foliage application, plastic box (Table 20, symbol J); assay type: in vivo, blackgrass (Alopecurus myosuroides); details: foliage application
Summary of the method: as §3

[19] = tested on: windgrass; assay: Test Example 4: herbicidal effect by soil treatment (Table 19, symbol L); assay type: in vivo, windgrass (Apera spica-venti)
Summary of the method: as §2

[20] = tested on: green foxtail; assay: Test Example 4: herbicidal effect by soil treatment (Table 19, symbol G); assay type: in vivo, green foxtail (Setaria viridis)
Summary of the method: as §2

[21] = tested on: green foxtail; assay: Test Example 5: herbicidal effect by foliage application, plastic box (Table 20, symbol G); assay type: in vivo, green foxtail (Setaria viridis); details: foliage application
Summary of the method: as §3

[22] = tested on: chickweed; assay: Test Example 5: herbicidal effect by foliage application, plastic box (Table 20, symbol P); assay type: in vivo, common chickweed (Stellaria media); details: foliage application
Summary of the method: as §3

[23] = tested on: velvetleaf; assay: Test Example 5: herbicidal effect by foliage application, plastic box (Table 20, symbol M); assay type: in vivo, velvetleaf (Abutilon theophrasti); details: foliage application
Summary of the method: as §3

[24] = tested on: blackgrass; assay: Test Example 4: herbicidal effect by soil treatment (Table 19, symbol J); assay type: in vivo, blackgrass (Alopecurus myosuroides)
Summary of the method: as §2

[25] = tested on: barnyard grass; assay: Test Example 3: herbicidal effect by foliage application, Wagner pot (Table 18, symbol H); assay type: in vivo, barnyard grass (Echinochloa crus-galli); details: 320 g/ha
Summary of the method: (§4)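 Plants were sown in alluvial soil held under 0.1–0.5 cm standing water and grown 14 days in a greenhouse at 25–30 °C. An emulsifiable formulation, water-diluted to the set dose, was then sprayed onto the foliage, and effects were scored three weeks later using previously defined criteria.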

[26] = tested on: rice flat sedge; assay: Test Example 3: herbicidal effect by foliage application, Wagner pot (Table 18, symbol E); assay type: in vivo, rice flat sedge (Cyperus iria); details: 320 g/ha
Summary of the method: as §4

[27] = tested on: redroot pigweed; assay: Test Example 4: herbicidal effect by soil treatment (Table 19, symbol N); assay type: in vivo, redroot pigweed (Amaranthus retroflexus)
Summary of the method: as §2

[28] = tested on: Chinese sprangletop; assay: Test Example 3: herbicidal effect by foliage application, Wagner pot (Table 18, symbol D); assay type: in vivo, chinese sprangletop (Leptochloa chinensis); details: 320 g/ha
Summary of the method: as §4

[29] = tested on: southern crabgrass; assay: Test Example 5: herbicidal effect by foliage application, plastic box (Table 20, symbol F); assay type: in vivo, southern crabgrass (Digitaria ciliaris); details: foliage application
Summary of the method: as §3

[30] = tested on: velvetleaf; assay: Test Example 4: herbicidal effect by soil treatment (Table 19, symbol M); assay type: in vivo, velvetleaf (Abutilon theophrasti)
Summary of the method: as §2

[31] = AAH 320 g/ha, three weeks after application
[32] = amount of applied herbicide 320 g/ha
[33] = 320 g/ha, evaluated three weeks after application

## Cc1nn(C)c(=O)c(-c2c(-c3ccc(C(C)C)cc3)sc3ccccc23)c1O [1-125]
[1]
  Herbicidal effect on C: oval-leafed pondweed (grade 0-5): 0 (Herbicidal rate of 5% or less (almost no effect))
[2]; AAH 320 g/ha
  I: wild oat, herbicidal effect rating: 0 (Herbicidal rate of 5% or less (almost no effect))
[3]; [31]
  H: barnyard grass, herbicidal effect: 5 (Herbicidal rate of 90% or more (almost completely withered))
[4]; [31]
  K: Italian ryegrass, herbicidal effect: 5 (Herbicidal rate of 90% or more (almost completely withered))
[5]; AAH 320 g/ha
  K: Italian ryegrass, herbicidal effect rating: 5 (Herbicidal rate of 90% or more (almost completely withered))
[6]; [31]
  L: windgrass, herbicidal effect: 5 (Herbicidal rate of 90% or more (almost completely withered))
[7]
  Herbicidal effect on A: late watergrass (grade 0-5): 3 (Herbicidal rate of 40% or more and less than 70%)
[8]; [31]
  O: lambsquarters, herbicidal effect: 5 (Herbicidal rate of 90% or more (almost completely withered))
[9]; AAH 320 g/ha
  O: lambsquarters, herbicidal effect rating: 5 (Herbicidal rate of 90% or more (almost completely withered))
[10]; [31]
  N: redroot pigweed, herbicidal effect: 5 (Herbicidal rate of 90% or more (almost completely withered))
[11]; AAH 320 g/ha
  R: persian speedwell, herbicidal effect rating: 5 (Herbicidal rate of 90% or more (almost completely withered))
[12]; [31]
  R: persian speedwell, herbicidal effect: 5 (Herbicidal rate of 90% or more (almost completely withered))
[13]; AAH 320 g/ha
  H: barnyard grass, herbicidal effect rating: 3 (Herbicidal rate of 40% or more and less than 70%)
[14]; [31]
  I: wild oat, herbicidal effect: 0 (Herbicidal rate of 5% or less (almost no effect))
[15]; AAH 320 g/ha
  P: chickweed, herbicidal effect rating: 1 (Herbicidal rate of 5% or more and less than 20%)
[16]; AAH 320 g/ha
  F: southern crabgrass, herbicidal effect rating: 1 (Herbicidal rate of 5% or more and less than 20%)
[17]
  Herbicidal effect on B: Japanese bulrush (grade 0-5): 0 (Herbicidal rate of 5% or less (almost no effect))
[18]; [31]
  J: blackgrass, herbicidal effect: 2 (Herbicidal rate of 20% or more and less than 40%)
[19]; AAH 320 g/ha
  L: windgrass, herbicidal effect rating: 0 (Herbicidal rate of 5% or less (almost no effect))
[20]; AAH 320 g/ha
  G: green foxtail, herbicidal effect rating: 3 (Herbicidal rate of 40% or more and less than 70%)
[21]; [31]
  G: green foxtail, herbicidal effect: 5 (Herbicidal rate of 90% or more (almost completely withered))
[22]; [31]
  P: chickweed, herbicidal effect: 5 (Herbicidal rate of 90% or more (almost completely withered))
[23]; [31]
  M: velvetleaf, herbicidal effect: 5 (Herbicidal rate of 90% or more (almost completely withered))
[24]; AAH 320 g/ha
  J: blackgrass, herbicidal effect rating: 0 (Herbicidal rate of 5% or less (almost no effect))
[25]
  herbicidal effect on H (barnyard grass), rating 0-5: 5 (Herbicidal rate of 90% or more (almost completely withered))
[26]
  herbicidal effect on E (rice flat sedge), rating 0-5: 5 (Herbicidal rate of 90% or more (almost completely withered))
[27]; AAH 320 g/ha
  N: redroot pigweed, herbicidal effect rating: 5 (Herbicidal rate of 90% or more (almost completely withered))
[28]
  herbicidal effect on D (Chinese sprangletop), rating 0-5: 4 (Herbicidal rate of 70% or more and less than 90%)
[29]; [31]
  F: southern crabgrass, herbicidal effect: 3 (Herbicidal rate of 40% or more and less than 70%)
[30]; AAH 320 g/ha
  M: velvetleaf, herbicidal effect rating: 1 (Herbicidal rate of 5% or more and less than 20%)

## Cc1nn(C)c(=O)c(-c2c(-c3ccc(OC(C)C)cc3)sc3ccc(Cl)cc23)c1O [2-107]
[1]
  Herbicidal effect on C: oval-leafed pondweed (grade 0-5): 0 (Herbicidal rate of 5% or less (almost no effect))
[2]; [32]
  I: wild oat, herbicidal effect rating: 0 (Herbicidal rate of 5% or less (almost no effect))
[3]; [33]
  herbicidal effect on H: barnyard grass: 4 (Herbicidal rate of 70% or more and less than 90%)
[4]; [33]
  herbicidal effect on K: Italian ryegrass: 0 (Herbicidal rate of 5% or less (almost no effect))
[5]; [32]
  K: Italian ryegrass, herbicidal effect rating: 0 (Herbicidal rate of 5% or less (almost no effect))
[6]; [33]
  herbicidal effect on L: windgrass: 4 (Herbicidal rate of 70% or more and less than 90%)
[7]
  Herbicidal effect on A: late watergrass (grade 0-5): 2 (Herbicidal rate of 20% or more and less than 40%)
[8]; [33]
  herbicidal effect on O: lambsquarters: 3 (Herbicidal rate of 40% or more and less than 70%)
[9]; [32]
  O: lambsquarters, herbicidal effect rating: 0 (Herbicidal rate of 5% or less (almost no effect))
[10]; [33]
  herbicidal effect on N: redroot pigweed: 4 (Herbicidal rate of 70% or more and less than 90%)
[11]; [32]
  R: persian speedwell, herbicidal effect rating: 5 (Herbicidal rate of 90% or more (almost completely withered))
[12]; [33]
  herbicidal effect on R: persian speedwell: 5 (Herbicidal rate of 90% or more (almost completely withered))
[13]; [32]
  H: barnyard grass, herbicidal effect rating: 0 (Herbicidal rate of 5% or less (almost no effect))
[14]; [33]
  herbicidal effect on I: wild oat: 0 (Herbicidal rate of 5% or less (almost no effect))
[15]; [32]
  P: chickweed, herbicidal effect rating: 0 (Herbicidal rate of 5% or less (almost no effect))
[16]; [32]
  F: southern crabgrass, herbicidal effect rating: 0 (Herbicidal rate of 5% or less (almost no effect))
[17]
  Herbicidal effect on B: Japanese bulrush (grade 0-5): 0 (Herbicidal rate of 5% or less (almost no effect))
[18]; [33]
  herbicidal effect on J: blackgrass: 3 (Herbicidal rate of 40% or more and less than 70%)
[19]; [32]
  L: windgrass, herbicidal effect rating: 0 (Herbicidal rate of 5% or less (almost no effect))
[20]; [32]
  G: green foxtail, herbicidal effect rating: 0 (Herbicidal rate of 5% or less (almost no effect))
[21]; [33]
  herbicidal effect on G: green foxtail: 4 (Herbicidal rate of 70% or more and less than 90%)
[22]; [33]
  herbicidal effect on P: chickweed: 5 (Herbicidal rate of 90% or more (almost completely withered))
[23]; [33]
  herbicidal effect on M: velvetleaf: 3 (Herbicidal rate of 40% or more and less than 70%)
[24]; [32]
  J: blackgrass, herbicidal effect rating: 0 (Herbicidal rate of 5% or less (almost no effect))
[25]
  herbicidal effect on H (barnyard grass), rating 0-5: 4 (Herbicidal rate of 70% or more and less than 90%)
[26]
  herbicidal effect on E (rice flat sedge), rating 0-5: 2 (Herbicidal rate of 20% or more and less than 40%)
[27]; [32]
  N: redroot pigweed, herbicidal effect rating: 0 (Herbicidal rate of 5% or less (almost no effect))
[28]
  herbicidal effect on D (Chinese sprangletop), rating 0-5: 0 (Herbicidal rate of 5% or less (almost no effect))
[29]; [33]
  herbicidal effect on F: southern crabgrass: 3 (Herbicidal rate of 40% or more and less than 70%)
[30]; [32]
  M: velvetleaf, herbicidal effect rating: 0 (Herbicidal rate of 5% or less (almost no effect))
